Measured values reported in ChEMBL document CHEMBL3102743, “Regulation of crosstalk between epithelial to mesenchymal transition molecules and MMP-9 mediates the antimetastatic activity of anethole in DU145 prostate cancer cells” (J Nat Prod, 2014).
Active and inactive are the calls of the source.

Key:
DU-145 [1] = test: Antimetastatic activity in human DU145 cells assessed as decrease of MMP9 expression at 100 uM in presence of TGF-beta; type: functional, cell-based
DU-145 [2] = test: Antimetastatic activity in human DU145 cells assessed as decrease of PI3K/Akt expression by Western blotting; type: functional, cell-based
DU-145 [3] = test: Antimigratory activity in human DU145 cells at 100 uM by wound-healing assay; type: functional, cell-based
DU-145 [4] = test: Antimetastatic activity in human DU145 cells assessed as increase of E-cadherin expression at 25 to 100 uM by Western blotting; type: functional, cell-based
DU-145 [5] = test: Antiinvasive activity in human DU145 cells assessed as reduction of number of invaded cells through matrigel at 100 uM after 8 hrs by Boyden chamber invasion assay in presence of TGF-beta; type: functional, cell-based
DU-145 [6] = test: Antiinvasive activity in human DU145 cells assessed as reduction of number of invaded cells through matrigel at 25 to 100 uM after 8 hrs by Boyden chamber invasion assay; type: functional, cell-based
DU-145 [7] = test: Antimetastatic activity in human DU145 cells assessed as increase of E-cadherin expression at 100 uM after 24 hrs by Western blotting in presence of TGF-beta; type: functional, cell-based
DU-145 [8] = test: Antimetastatic activity in MMP9 siRNA transfected human DU145 cells assessed as increase of E-cadherin expression at 25 to 100 uM by Western blotting; type: functional, cell-based
DU-145 [9] = test: Antimetastatic activity in human DU145 cells assessed as increase of E-cadherin expression at 100 uM after 24 hrs by immunofluorescence analysis in presence of TGF-beta; type: functional, cell-based
DU-145 [10] = test: Antimetastatic activity in human DU145 cells assessed as decrease of twist expression at 25 to 100 uM by Western blotting; type: functional, cell-based
DU-145 [11] = test: Antimetastatic activity in human DU145 cells assessed as reduction of vimentin expression at 100 uM after 24 hrs by Western blotting in presence of TGF-beta; type: functional, cell-based
[12] = biological target: Matrix metalloproteinase-9 (Homo sapiens) (UniProt P14780); test: Inhibition of MMP9 in human DU145 cells after 24 hrs by SDS-PAGE gelatin zymography assay; type: cell-based; details: DU-145
DU-145 [13] = test: Antimetastatic activity in MMP9 siRNA transfected human DU145 cells assessed as increase of vimentin expression at 25 to 100 uM by Western blotting; type: functional, cell-based
DU-145 [14] = test: Antimetastatic activity in human DU145 cells assessed as decrease of vimentin mRNA expression at 25 to 100 uM by RT-PCR analysis; type: functional, cell-based
DU-145 [15] = test: Antimetastatic activity in human DU145 cells assessed as decrease of twist mRNA expression at 25 to 100 uM by RT-PCR analysis; type: functional, cell-based
DU-145 [16] = test: Antimetastatic activity in human DU145 cells assessed as increase of E-cadherin mRNA expression at 25 to 100 uM by RT-PCR analysis; type: functional, cell-based
DU-145 [17] = test: Cytotoxicity against human DU145 cells assessed as cell viability up to 200 uM after 24 hrs by MTT assay; type: cell-based; details: du-145, 24 h
DU-145 [18] = test: Antimetastatic activity in human DU145 cells assessed as reduction of twist expression at 100 uM after 24 hrs by Western blotting in presence of TGF-beta; type: functional, cell-based
DU-145 [19] = test: Antimetastatic activity in human DU145 cells assessed as decrease of MMP9 mRNA expression at 25 to 100 uM by RT-PCR analysis; type: functional, cell-based
DU-145 [20] = test: Antimetastatic activity in human DU145 cells assessed as decrease of snail mRNA expression at 25 to 100 uM by RT-PCR analysis; type: functional, cell-based
DU-145 [21] = test: Inhibition of cell adhesion in human DU145 cells in vitronectin-coated plates at 25 to 100 uM; type: functional, cell-based
DU-145 [22] = test: Antimetastatic activity in human DU145 cells assessed as decrease of vimentin expression at 25 to 100 uM by Western blotting; type: functional, cell-based

Sequence of Matrix metalloproteinase-9 (Homo sapiens) (P14780 whole entry): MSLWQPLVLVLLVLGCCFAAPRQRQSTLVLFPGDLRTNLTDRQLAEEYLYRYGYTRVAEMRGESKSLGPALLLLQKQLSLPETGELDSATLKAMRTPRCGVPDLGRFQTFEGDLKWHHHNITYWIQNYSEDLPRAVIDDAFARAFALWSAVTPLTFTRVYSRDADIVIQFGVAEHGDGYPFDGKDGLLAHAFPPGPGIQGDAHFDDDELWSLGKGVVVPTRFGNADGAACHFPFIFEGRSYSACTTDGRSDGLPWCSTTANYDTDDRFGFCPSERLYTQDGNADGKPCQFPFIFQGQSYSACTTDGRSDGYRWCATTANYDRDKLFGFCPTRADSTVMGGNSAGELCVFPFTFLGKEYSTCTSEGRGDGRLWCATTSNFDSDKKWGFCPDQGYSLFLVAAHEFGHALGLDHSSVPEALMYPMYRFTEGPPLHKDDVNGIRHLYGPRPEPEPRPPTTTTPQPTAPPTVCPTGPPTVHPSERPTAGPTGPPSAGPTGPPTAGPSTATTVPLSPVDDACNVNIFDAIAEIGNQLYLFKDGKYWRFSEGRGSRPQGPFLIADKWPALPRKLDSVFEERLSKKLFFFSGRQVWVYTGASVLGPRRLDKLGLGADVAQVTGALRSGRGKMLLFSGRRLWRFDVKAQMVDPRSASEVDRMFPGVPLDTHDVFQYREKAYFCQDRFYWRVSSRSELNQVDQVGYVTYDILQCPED

C/C=C/c1ccc(OC)cc1 [ANETHOLE]
inactive: Activity (DU-145 [1]) | Activity (DU-145 [5]) | Activity (DU-145 [7]) | Activity (DU-145 [8]) | Activity (DU-145 [9]) | Activity (DU-145 [11]) | Activity (DU-145 [13]) | Activity (DU-145 [18])
Non-toxic: Activity (DU-145 [17])
active: Activity (DU-145 [2]) Dose-dependent effect | Activity (DU-145 [3]) | Activity (DU-145 [4]) | Activity (DU-145 [6]) | Activity (DU-145 [10]) | inhibition [12] Dose-dependent effect | Activity (DU-145 [14]) | Activity (DU-145 [15]) | Activity (DU-145 [16]) | Activity (DU-145 [19]) | Activity (DU-145 [20]) | inhibition (DU-145 [21]) | Activity (DU-145 [22])
